Counter-ions that a name gives are not always drawn. Like-named read-outs stand apart in the source and are kept apart here.
Legend:
[1] = test system: SARS-CoV-2 in human airway epithelial cells at air-liquid interface; assay type: cell-based, SARS-CoV-2_B.1.1.7
[2] = test system: SARS-CoV-2 in Mucilair human airway epithelia; assay type: cell-based, SARS-CoV-2 BavPat1/2020
[3] = test system: SARS-CoV-2 in human airway epithelial cells at air-liquid interface; parameters: method as in earlier work; details: 4 dpi, cited from earlier work

## Nc1c(Br)cc(Br)cc1CN[C@H]1CC[C@H](O)CC1 [Ambroxol, ambroxol]
[1]
  Log Viral Load Reduction (Compared to Virus Control and Background), HAEC/ALI (alpha variant): –1.0 (+-0.71) log

## CCN(CC)Cc1cc(Nc2ccnc3cc(Cl)ccc23)ccc1O [Amodiaquine, amodiaquine]
[2]; 10 uM, […]
  Log Viral titer Reduction (Compared to Virus Control), HAEC/ALI (BavPat variant): -0.51 (+-1.60) log

## COC(=O)N[C@H](C(=O)N[C@@H](Cc1ccccc1)[C@@H](O)CN(Cc1ccc(-c2ccccn2)cc1)NC(=O)[C@@H](NC(=O)OC)C(C)(C)C)C(C)(C)C [Atazanavir, atazanavir]
[2]; 10 uM, […]
  Log Viral titer Reduction (Compared to Virus Control), HAEC/ALI (BavPat variant): 0.09 (+-0.64) log

## CN(C)C(=O)COC(=O)Cc1ccc(OC(=O)c2ccc(NC(=N)N)cc2)cc1 [Camostat mesylate, camostat mesylate]
[1]
  Activity, HAEC/ALI (alpha variant): YES
  Log Viral Load Reduction (Compared to Virus Control and Background), HAEC/ALI (alpha variant): > 1.7 log

## COc1ccc2cc1Oc1ccc(cc1)C[C@H]1c3c(cc4c(c3Oc3cc5c(cc3OC)CCN(C)[C@@H]5C2)OCO4)CCN1C [Cepharanthine, cepharanthine]
[1]
  Log Viral Load Reduction (Compared to Virus Control and Background), HAEC/ALI (alpha variant): 0.92 (+-0.97) log

## COc1cc2c(c(OC)c1OC)-c1ccc(OC)c(=O)cc1[C@@H](NC(C)=O)CC2 [Colchicine, colchicine]
[1]
  Log Viral Load Reduction (Compared to Virus Control and Background), HAEC/ALI (alpha variant): -0.2 (+-0.44) log

## COC(=O)N[C@H](C(=O)N1CCC[C@H]1c1nc(-c2ccc(-c3ccc(-c4c[nH]c([C@@H]5CCCN5C(=O)[C@@H](NC(=O)OC)C(C)C)n4)cc3)cc2)c[nH]1)C(C)C [Daclatasvir, daclatasvir]
[1]; 10 uM, […]
  Log Viral Load Reduction (Compared to Virus Control and Background), HAEC/ALI (alpha variant): 0.17 (+-0.84) log

## O=c1nc(NO)ccn1[C@@H]1O[C@H](CO)[C@@H](O)[C@H]1O [EIDD-1931]
[1]
  Log Viral Load Reduction (Compared to Virus Control and Background), HAEC/ALI (alpha variant): +Inc
[1]; 10 uM, […]
  Log Viral Load Reduction (Compared to Virus Control and Background), HAEC/ALI (alpha variant): +Inc

## NC(=O)c1nc(F)c[nH]c1=O [Favipiravir, favipiravir]
[1]; 300 uM, […]
  Log Viral Load Reduction (Compared to Virus Control and Background), HAEC/ALI (alpha variant): -0.4 (+/-0.2) log

## CNCCC(Oc1ccc(C(F)(F)F)cc1)c1ccccc1 (stereo not shown) [Fluoxetine, fluoxetine]
[1]
  Log Viral Load Reduction (Compared to Virus Control and Background), HAEC/ALI (alpha variant): -0.12 (+-0.10)
[2]
  Log Viral titer Reduction (Compared to Virus Control), HAEC/ALI (BavPat variant): 0.68 (+-0.11)

## COCCCC/C(=N\OCCN)c1ccc(C(F)(F)F)cc1 [Fluvoxamine maleate, fluvoxamine maleate]
[1]; 10 uM, […]
  Log Viral Load Reduction (Compared to Virus Control and Background), HAEC/ALI (alpha variant): +Inc
[2]; 10 uM, […]
  Log Viral titer Reduction (Compared to Virus Control), HAEC/ALI (BavPat variant): 0.2(+-0.1) log

## OC(c1cc(C(F)(F)F)nc2c(C(F)(F)F)cccc12)C1CCCCN1 (stereo not shown) [Mefloquine, mefloquine]
[1]; 10 uM, […]
  Log Viral Load Reduction (Compared to Virus Control and Background), HAEC/ALI (alpha variant): 0.45 (+-2.02) log

## CC(C)C(=O)OC[C@H]1O[C@@H](n2ccc(NO)nc2=O)[C@H](O)[C@@H]1O [Molnupiravir, molnupiravir]
[1]
  Log Viral Load Reduction (Compared to Virus Control and Background), HAEC/ALI (alpha variant): 1.9 (+-1.3) log
[1]; 3 uM, […], § variability observed
  Activity, HAEC/ALI (alpha variant): YES
[1]; 10 uM, […]
  Activity, HAEC/ALI (alpha variant): YES
  Log Viral Load Reduction (Compared to Virus Control and Background), HAEC/ALI (alpha variant): 5.4 (+-1.5) log
[2]
  Activity, HAEC/ALI (BavPat variant): YES
[2]; 0.3 uM, […]
  Log Viral titer Reduction (Compared to Virus Control), HAEC/ALI (BavPat variant): -0.39 (+-0.48) log

## Cc1c(O)cccc1C(=O)N[C@@H](CSc1ccccc1)[C@H](O)CN1C[C@H]2CCCC[C@H]2C[C@H]1C(=O)NC(C)(C)C [Nelfinavir, nelfinavir]
[1]; 10 uM, […]
  Activity, HAEC/ALI (alpha variant): YES
  Log Viral Load Reduction (Compared to Virus Control and Background), HAEC/ALI (alpha variant): 3.2 (+-1.4) log

## CC(C)(C)[C@H](NC(=O)C(F)(F)F)C(=O)N1C[C@H]2[C@@H]([C@H]1C(=O)N[C@H](C#N)C[C@@H]1CCNC1=O)C2(C)C [Nirmatrelvir, nirmatrelvir]
[3]; 0.03 uM
  Log Viral Load Reduction (Compared to Virus Control and Background), HAEC/ALI (alpha variant): -0.30 (+-0.41) log
[3]; 0.1 uM
  Log Viral Load Reduction (Compared to Virus Control and Background), HAEC/ALI (alpha variant): 1.9 (+-1.6) log
[3]; 0.1 uM, § variability observed
  Activity, HAEC/ALI (alpha variant): YES
[3]; 1 uM
  Activity, HAEC/ALI (alpha variant): YES
  Log Viral Load Reduction (Compared to Virus Control and Background), HAEC/ALI (alpha variant): > 3.8 log

## CC(=O)Oc1ccccc1C(=O)Nc1ncc([N+](=O)[O-])s1 [Nitazoxanide, nitazoxanide]
[2]
  Activity, HAEC/ALI (BavPat variant): Yes
  Log Viral titer Reduction (Compared to Virus Control), HAEC/ALI (BavPat variant): -1.59 (+-0.72) log

## CC(=O)CCCCn1c(=O)c2c(ncn2C)n(C)c1=O [Pentoxyfilline, pentoxyfilline]
[2]; 10 uM, […]
  Log Viral titer Reduction (Compared to Virus Control), HAEC/ALI (BavPat variant): 0.17(+-0.32) log

## CCCN(CCC)S(=O)(=O)c1ccc(C(=O)O)cc1 [Probenecid, probenecid]
[1]; 10 uM, […]
  Log Viral Load Reduction (Compared to Virus Control and Background), HAEC/ALI (alpha variant): 0.34 (+-1.0) log

## CC1(C)C(=O)N(c2ccc(C#N)c(C(F)(F)F)c2F)C(=S)N1c1ccc(CCCc2ncco2)nc1 [Proxalutamide, proxalutamide]
[2]; 10 uM, […]
  Log Viral titer Reduction (Compared to Virus Control), HAEC/ALI (BavPat variant): 0.11 (+-0.6) log

## CC(C)OC(=O)[C@H](C)N[P@](=O)(OC[C@H]1O[C@@H](n2ccc(=O)[nH]c2=O)[C@](C)(F)[C@@H]1O)Oc1ccccc1 [Sofosbuvir, sofosbuvir]
[1]; 10 uM, […]
  Log Viral Load Reduction (Compared to Virus Control and Background), HAEC/ALI (alpha variant): -0.56 (+-0.10) log

## bemnifosbuvir
[1]
  Log Viral Load Reduction (Compared to Virus Control and Background), HAEC/ALI (alpha variant): -0.35 (+-1.2) log
[2]; 0.1 uM, […]
  Log Viral titer Reduction (Compared to Virus Control), HAEC/ALI (BavPat variant): -0.12 (+-0.4) log
[2]; 0.3 uM, […]
  Log Viral titer Reduction (Compared to Virus Control), HAEC/ALI (BavPat variant): -0.38 (+-0.18) log

## ivermectin
[1]; 10 uM, […]
  Activity, HAEC/ALI (alpha variant): Toxic
  Log Viral Load Reduction (Compared to Virus Control and Background), HAEC/ALI (alpha variant): > 4.09 log

Source: publication PMC9460261, “Need for a Standardized Translational Drug Development Platform: Lessons Learned from the Repurposing of Drugs for COVID-19” (Microorganisms, 2022)
